Measured values as given in patent publication US10399968B2, “Hydroxyalkyl thiadiazole derivatives” (Daiichi Sankyo Company, Limited, priority 2015, dated 2019).
pIC50: −log10 of the molar value. Converted amounts (≈) assume the structure as drawn.

Key:
[1] = target: Clostridium difficile DNA gyrase (Clostridioides difficile, UniProt Q18C89); test: DNA supercoiling inhibition assay; type: biochemical; conditions: supercoiling of relaxed pBR322 DNA, 60 minutes at 37° C.
How it was run: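 Relaxed pBR322 (400 ng) supercoiled by C. difficile gyrase for 60 min at 37 °C in Tris-HCl pH 7.5 with 6 mM MgCl2, 70 mM KCl, compounds added from 20% DMSO. Products resolved on 1.0% agarose, EtBr-stained; supercoiled band intensity quantified and IC50 fitted.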

[2] = system: S. aureus ATCC 29213; test: Susceptibility of bacteria, broth microdilution MIC; type: cell-based; conditions: Staphylococcus aureus, ATCC29213
How it was run: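 CLSI M7-A7 broth microdilution with 2-fold serial compound dilutions; inoculum from 0.5 McFarland suspension diluted 10-fold, 4 μL per well. Incubated 35 °C for about 20 h; MIC is the lowest concentration preventing visible growth.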

[3] = Oral bioavailability (BA) in rats; type: in vivo; conditions: male, SD, blood; Rat, 2 mg/kg oral vs jugular vein
Procedure: To SD male rats (7 week-old) fasted overnight, a solution of the test compound Captisol® was administered into the jugular vein (3 animals) and a solution of Lutrol® F68 was administered orally (3 animals). The dose of the test compounds was 2 mg/kg body weight of the rat for both administration routes. The amount of Captisol® used was 0.36 mg/kg body weight of the rat. The amount of Lutrol® F68 used was 0.02 mg/kg body weight of the rat. The BA value was calculated by the formula below using the integration value (AUCiv(0-∞)) of the blood concentration extrapolated from time 0 to infinity after administration of both test compounds. The greater a BA value of the compound shown, the higher the oral bioavailability is.

[4] = system: P. acnes ATCC 6523; test: Susceptibility of P. acnes, agar dilution MIC; type: cell-based; conditions: Cutibacterium acnes, ATCC6523, anaerobic
Procedure: (§1) The antibacterial activity of the compounds of the present invention against P. acnes clinical isolates was tested by the agar dilution method. The assay was carried out according to the CLSI guidelines document (Clinical and Laboratory Standards Institute, 2012 & 2016). The test strains were spread on supplemented Brucella agar (SBA) plates and grown for 42 to 48 hours at 36° C. under anaerobic condition. The test compound dilutions were prepared with Brucella broth and SBA plates containing dilution of test compound were prepared. As an anaerobic growth control and to check the aerobic contamination, plates not containing the test compound were also prepared. Colonies grown on plates were suspended with Brucella broth to adjust the turbidity to 0.5 McFarland using a densitometer. Suspension (1-2 μL) of the test strains was inoculated onto each agar surface by using a bacterial suspension inoculation apparatus (multipoint inoculator). After anaerobic incubation for 42 to 48 hours at 36° C., absence and presence of growth of each strain on growth control plates and test compounds plate were examined with unaided eye. The MIC was determined at which a marked reduction occurs in the appearance of growth on the test plate as compared to that of growth on the anaerobic control plates.

[5] = system: P. acnes ATCC 6921; test: Susceptibility of P. acnes, agar dilution MIC; type: cell-based; conditions: Cutibacterium acnes, ATCC6921, anaerobic
Procedure: as §1

[6] = system: P. acnes IHMA 103740; test: Susceptibility of P. acnes, agar dilution MIC; type: cell-based; conditions: Cutibacterium acnes, IHMA103740, anaerobic
Procedure: as §1

[7] = system: P. acnes IHMA 775486; test: Susceptibility of P. acnes, agar dilution MIC; type: cell-based; conditions: Cutibacterium acnes, IHMA775486, anaerobic
Procedure: as §1

[8] = system: N. gonorrhoeae clinical isolates; test: Susceptibility of N. gonorrhoeae, agar dilution MIC; type: cell-based
Procedure: The antibacterial activity of the compounds of the present invention against N. gonorrhoeae clinical isolates was tested by the agar dilution method [Clinical and Laboratory Standards Institute, 2016]. The test strains were spread on chocolate agar plates and grown for 20-24 h at 36° C. in 5% carbon dioxide. The test compound dilutions were prepared with broth and agar MIC plates were prepared using GC agar base supplemented with haemoglobin and 1% IsoVitaleX plates. As growth control plates not containing the test compound were also prepared. Colonies grown on plates were suspended with broth to adjust the turbidity to 0.5 McFarland using a densitometer. Suspension (1-2 μL) of the test strains was inoculated onto each agar surface by using a bacterial suspension inoculation apparatus (multipoint inoculator). After aerobic incubation for 20-24 h at 36° C. in 5% carbon dioxide, absence and presence of growth of each strain on growth control plates and test compounds plate were examined with unaided eye. The MIC was determined at which a marked reduction occurs in the appearance of growth on the test plate as compared to that of growth on the aerobic control plates.

Chain of Clostridium difficile DNA gyrase (Q18C90 entry or part of it): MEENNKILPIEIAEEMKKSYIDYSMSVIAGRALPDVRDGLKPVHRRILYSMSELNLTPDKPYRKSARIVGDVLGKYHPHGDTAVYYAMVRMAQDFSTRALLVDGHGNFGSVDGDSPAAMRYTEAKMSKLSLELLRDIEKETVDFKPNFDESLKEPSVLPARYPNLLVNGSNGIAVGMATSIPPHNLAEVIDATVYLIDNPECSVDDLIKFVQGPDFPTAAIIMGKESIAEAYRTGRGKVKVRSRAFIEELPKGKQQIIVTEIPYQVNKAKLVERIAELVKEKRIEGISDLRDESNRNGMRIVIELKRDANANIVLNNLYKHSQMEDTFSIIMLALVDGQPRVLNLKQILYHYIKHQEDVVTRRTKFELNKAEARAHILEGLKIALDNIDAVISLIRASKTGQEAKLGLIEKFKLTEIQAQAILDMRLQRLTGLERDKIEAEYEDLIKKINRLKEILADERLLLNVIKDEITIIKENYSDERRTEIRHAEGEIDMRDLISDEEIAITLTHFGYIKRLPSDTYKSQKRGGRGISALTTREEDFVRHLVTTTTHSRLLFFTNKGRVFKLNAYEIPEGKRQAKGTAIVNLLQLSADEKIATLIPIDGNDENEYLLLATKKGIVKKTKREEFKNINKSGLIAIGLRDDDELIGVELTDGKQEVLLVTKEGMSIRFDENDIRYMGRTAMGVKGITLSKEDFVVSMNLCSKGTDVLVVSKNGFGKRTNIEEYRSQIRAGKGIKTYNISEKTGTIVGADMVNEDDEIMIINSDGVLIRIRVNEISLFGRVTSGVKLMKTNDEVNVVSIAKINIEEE
Chain of Clostridium difficile DNA gyrase (Q18C89 entry or part of it): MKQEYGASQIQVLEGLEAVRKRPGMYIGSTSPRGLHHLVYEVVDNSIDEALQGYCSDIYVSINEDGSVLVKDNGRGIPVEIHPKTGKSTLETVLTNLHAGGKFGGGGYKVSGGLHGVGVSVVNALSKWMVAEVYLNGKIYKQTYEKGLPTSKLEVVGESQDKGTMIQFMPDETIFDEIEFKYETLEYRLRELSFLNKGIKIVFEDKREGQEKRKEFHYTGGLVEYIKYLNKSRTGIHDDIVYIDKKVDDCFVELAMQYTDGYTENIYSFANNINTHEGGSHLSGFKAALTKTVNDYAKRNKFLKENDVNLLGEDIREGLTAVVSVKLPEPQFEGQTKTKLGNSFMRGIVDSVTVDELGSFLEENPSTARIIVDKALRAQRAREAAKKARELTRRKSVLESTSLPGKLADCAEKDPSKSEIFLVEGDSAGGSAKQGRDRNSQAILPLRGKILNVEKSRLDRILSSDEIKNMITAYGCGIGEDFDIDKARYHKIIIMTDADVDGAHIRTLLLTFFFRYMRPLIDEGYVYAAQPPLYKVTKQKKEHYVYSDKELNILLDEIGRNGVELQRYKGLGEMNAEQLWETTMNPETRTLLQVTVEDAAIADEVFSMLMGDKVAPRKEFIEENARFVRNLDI

Row | SMILES | pIC50 [1] | MIC [2] [µg/mL] | bioavailability [3] [%] | MIC [4] [µg/mL] | MIC [5] [µg/mL] | MIC [6] [µg/mL] | MIC [7] [µg/mL] | MIC [8] [µg/mL]
1 | CCc1[nH]c(C(=O)N[C@@H]2CCN(c3nnc(C(C)(C)O)s3)C[C@@H]2OC)nc1Cl [Compound No. 2, 4-Chloro-5-ethyl-N-{(3S,4R)-1-[5-(2-hydroxypropan-2-yl)-1,3,4-thiadiazol-2-yl]-3-methoxypiperidin-4-yl}-1H-imidazole-2-carboxamide] | 7.33 | 0.25 (≈ 0.583 µM) | 98 | 0.125 (≈ 0.291 µM) | 0.125 (≈ 0.291 µM) | 0.125 (≈ 0.291 µM) | 0.125 (≈ 0.291 µM) | 0.25 (≈ 0.583 µM)
2 | CCc1[nH]c(C(=O)N[C@@H]2CCN(c3nnc([C@H](C)O)s3)C[C@@H]2OC)nc1Cl (single isomer, unassigned) [Compound No. 5] | 7.66 | 0.5 (≈ 1.21 µM) | 60 |  |  |  |  | 
